Values joined by “and” are separate entries in the source; they are usually repeats but may differ in a detail not shown here. Equal entries are not always repeated. Where two headings read alike, the source gives them in different places.
Columns and labels:
[1] = test system: hERG1a and hERG1a/1b channels; conditions: cited from earlier work
[2] = test system: adult human primary ventricular trabeculae; assay: Action potential recordings from adult human ventricular trabeculae (sharp electrode)
hERG [3] = conditions: ref Crumb et al., 2016, cited from earlier work
[4] = test system: adult human primary ventricular trabeculae; conditions: mexiletine at 3X concentration as tested here; ref Qu et al., 2017; cited from earlier work
[5] = used to calculate free Cmax; no reference given; cited from earlier work
hERG [6] = target: hERG (Homo sapiens, UniProt Q12809); assay: in vitro; conditions: HEK293 cells stably expressing the hERG1a subunit, pH 7.4
[7] = target: hERG current (HEK293 cells expressing the hERG1a subunit) (Homo sapiens, UniProt Q12809); assay: cell-based
[8] = test system: IBa or Ba2+ current through CaV1.2 channels; conditions: read-out: IBa (Ba2+ current through CaV1.2) IC50; prior study; 36 °C; ref Crumb et al., 2016; cited from earlier work
INaL (NaV1.5 channels) = conditions: prior study, ref Crumb et al., 2016, cited from earlier work; for IC50: read-out: INaL IC50, veratridine, 36 °C
[9] = calculated with MW and protein binding; ref Johannesen et al., 2016; cited from earlier work
clinical ECG = conditions: lidocaine or mexiletine co-administered with dofetilide; diltiazem with moxifloxacin; ref Johannesen et al., 2016; cited from earlier work
INaL = test system: INaL; design: method as in Wu et al., 2019; conditions: room temperature, ref Wu et al., 2019, cited from earlier work
[10] = test system: Ba2+ current through CaV1.2 channels; design: method as in Ren et al., 2022; conditions: ∼37 °C; ref Ren et al., 2022; cited from earlier work
[11] = diltiazem 3.84 then 38.4 µM or nifedipine 0.23 then 1 µM, alone

hERG current (HEK293 cells expressing the hERG1a subunit), sequence (Q12809 whole entry): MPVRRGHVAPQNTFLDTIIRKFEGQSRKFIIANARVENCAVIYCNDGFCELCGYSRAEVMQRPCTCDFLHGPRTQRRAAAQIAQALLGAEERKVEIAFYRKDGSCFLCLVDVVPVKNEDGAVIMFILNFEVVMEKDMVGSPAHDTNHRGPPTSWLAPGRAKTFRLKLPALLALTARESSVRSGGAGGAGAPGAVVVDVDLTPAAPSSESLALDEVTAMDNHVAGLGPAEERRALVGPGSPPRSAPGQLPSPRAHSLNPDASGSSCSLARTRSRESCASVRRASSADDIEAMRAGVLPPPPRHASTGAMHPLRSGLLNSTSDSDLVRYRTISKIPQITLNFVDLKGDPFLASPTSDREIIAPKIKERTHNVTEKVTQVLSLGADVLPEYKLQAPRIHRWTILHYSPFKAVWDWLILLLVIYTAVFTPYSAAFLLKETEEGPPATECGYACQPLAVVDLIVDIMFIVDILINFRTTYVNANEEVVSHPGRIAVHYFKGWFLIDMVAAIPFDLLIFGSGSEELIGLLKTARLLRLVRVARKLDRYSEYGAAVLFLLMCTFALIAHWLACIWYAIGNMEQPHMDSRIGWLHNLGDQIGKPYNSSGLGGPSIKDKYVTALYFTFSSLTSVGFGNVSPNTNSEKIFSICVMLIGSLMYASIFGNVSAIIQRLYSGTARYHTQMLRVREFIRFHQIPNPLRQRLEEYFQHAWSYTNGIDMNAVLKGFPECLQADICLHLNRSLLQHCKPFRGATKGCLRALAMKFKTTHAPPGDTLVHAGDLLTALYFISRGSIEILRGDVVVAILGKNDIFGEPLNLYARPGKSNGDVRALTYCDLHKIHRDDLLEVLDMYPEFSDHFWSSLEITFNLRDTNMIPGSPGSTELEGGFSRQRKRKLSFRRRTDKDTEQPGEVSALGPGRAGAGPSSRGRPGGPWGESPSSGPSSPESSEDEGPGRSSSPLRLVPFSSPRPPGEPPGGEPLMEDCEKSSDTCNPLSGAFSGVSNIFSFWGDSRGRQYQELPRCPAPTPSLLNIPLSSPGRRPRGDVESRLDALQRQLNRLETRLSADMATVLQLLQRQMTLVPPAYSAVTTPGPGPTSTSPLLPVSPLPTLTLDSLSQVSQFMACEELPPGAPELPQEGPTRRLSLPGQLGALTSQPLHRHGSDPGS
hERG (Homo sapiens, UniProt Q12809), sequence (Q12809 whole entry): as above

O=C1CC[C@@]2(O)[C@H]3Cc4ccc(O)c5c4[C@@]2(CCN3CC2CC2)[C@H]1O5 [naltrexone]
pharmacological difference between hERG1a and hERG1a/1b channels ([1]; ref Tran et al., 2020): no pharmacological differences

COC(=O)C1=C(C)NC(C)=C(C(=O)OC)C1c1ccccc1[N+](=O)[O-] [nifedipine]
AP triangulation [2, 11]: no AP triangulation

CN(CCOc1ccc(NS(C)(=O)=O)cc1)CCc1ccc(NS(C)(=O)=O)cc1 [dofetilide]
AP triangulation (APD90 minus APD30) ([2]; dofetilide 0.1 µM alone, 1 Hz): resulting in AP triangulation
AP triangulation ([2]; dofetilide in the presence of diltiazem or nifedipine): induced AP triangulation

Nc1nnc(-c2cccc(Cl)c2Cl)c(N)n1 [lamotrigine]
AP height [4]: reduced AP height

Cc1cccc(C)c1OCC(C)N (stereo not shown) [mexiletine]
AP height [4]: reduced AP height
percent protein binding (PB) [5]: 55%
inhibition at 10 µM (hERG [6]): ~20%
IC50 [7]: 55.6 µM
hERG current inhibition (hERG [3]; 10 μM, highest concentration tested in prior study): ~10%
IC50 [8]: 38.2 µM
IC50 (INaL (NaV1.5 channels)): 9.3 µM and 9 µM
free clinical Cmax [9]: 3.6 µM
effect on hERG block-induced QTC and J-TpeakC prolongation (clinical ECG): shortened by co-administration

COc1ccccc1OCC(O)CN1CCN(CC(=O)Nc2c(C)cccc2C)CC1 (stereo not shown) [ranolazine]
AP height [4]: did not

O=C(NCC1CCCCN1)c1cc(OCC(F)(F)F)ccc1OCC(F)(F)F (stereo not shown) [flecainide]
AP height [4]: reduced AP height

CCN(CC)CC(=O)Nc1c(C)cccc1C [lidocaine]
IC50 (INaL; read-out: INaL IC50 obtained in ATX-II): 31.7 µM
IC50 (INaL; read-out: INaL IC50 obtained in veratridine): 395 µM

buprenorphine
pharmacological difference between hERG1a and hERG1a/1b channels [1]: no pharmacological differences

C=CCN1CC[C@]23c4c5ccc(O)c4O[C@H]2C(=O)CC[C@@]3(O)[C@H]1C5 [naloxone]
pharmacological difference between hERG1a and hERG1a/1b channels ([1]; ref Tran et al., 2020): no pharmacological differences

CCC(=O)C(CC(C)N(C)C)(c1ccccc1)c1ccccc1 (stereo not shown) [methadone]
pharmacological difference between hERG1a and hERG1a/1b channels [1]: no pharmacological differences

COc1ccc([C@@H]2Sc3ccccc3N(CCN(C)C)C(=O)[C@@H]2OC(C)=O)cc1 [diltiazem]
IC50 [10]: 0.8 µM
hERG current inhibition when 50% of CaV1.2 channels were blocked (hERG [3]; prior study): no inhibition
IC50 [8]: 0.112 µM
INaL inhibition when 50% of CaV1.2 channels were blocked (INaL (NaV1.5 channels)): no inhibition
IC50 (INaL (NaV1.5 channels)): 24.5 µM
AP triangulation [2, 11]: resulting in AP triangulation

— paper PMC12640937, “Integrating drug effects on individual cardiac ionic currents and cardiac action potentials to understand nonclinical translation to clinical ECG changes” (Frontiers in Pharmacology, 2025)
